Data from ChEMBL document CHEMBL4311992, “Discovery of 3-(((9H-purin-6-yl)amino)methyl)-4,6-dimethylpyridin-2(1H)-one derivatives as novel tubulin polymerization inhibitors for treatment of cancer” (Eur J Med Chem, 2019).

Legend:
[1] = molecular target: Serine/threonine-protein kinase WNK3 (Homo sapiens) (UniProt Q9BYP7); assay: Inhibition of human WNK3 (1 to 434 residues) using myelin basic protein as substrate measured after 40 mins in presence of [gamma33P]ATP by scintillation counting method; parameters: scale not given: the % may be the effect or the level left
[2] = molecular target: Tyrosine-protein kinase Lck (Homo sapiens) (UniProt P06239); assay: Inhibition of recombinant full-length human activated Lck assessed as residual activity at 10 uM using KVEKIGEGTYGVVYK as substrate measured after 40 mins in presence of [gamma33P]ATP by scintillation counting method
Sequence of Tyrosine-protein kinase Lck (Homo sapiens) (P06239 2-509 limits assumed): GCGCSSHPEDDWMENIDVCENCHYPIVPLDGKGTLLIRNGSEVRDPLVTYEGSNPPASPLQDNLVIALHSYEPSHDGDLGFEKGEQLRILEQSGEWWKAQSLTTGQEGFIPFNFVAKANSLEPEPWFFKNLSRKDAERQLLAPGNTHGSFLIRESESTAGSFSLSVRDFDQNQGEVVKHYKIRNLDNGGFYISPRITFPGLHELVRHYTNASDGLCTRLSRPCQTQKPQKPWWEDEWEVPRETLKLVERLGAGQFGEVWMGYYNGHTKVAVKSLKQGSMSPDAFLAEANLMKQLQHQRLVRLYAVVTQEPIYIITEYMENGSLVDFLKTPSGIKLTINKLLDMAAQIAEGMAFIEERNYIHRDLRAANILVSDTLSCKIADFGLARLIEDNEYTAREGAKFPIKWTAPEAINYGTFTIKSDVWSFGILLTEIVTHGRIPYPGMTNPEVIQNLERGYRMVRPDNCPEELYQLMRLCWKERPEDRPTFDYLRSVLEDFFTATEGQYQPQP

[3] = molecular target: Serine/threonine-protein kinase TBK1 (Homo sapiens) (UniProt Q9UHD2); assay: Inhibition of recombinant full-length human TBK1 assessed as residual activity at 10 uM using KRRRALS(p)VASLPGL as substrate measured after 40 mins in presence of [gamma33P]ATP by scintillation counting method
Sequence of Serine/threonine-protein kinase TBK1 (Homo sapiens) (Q9UHD2 whole entry): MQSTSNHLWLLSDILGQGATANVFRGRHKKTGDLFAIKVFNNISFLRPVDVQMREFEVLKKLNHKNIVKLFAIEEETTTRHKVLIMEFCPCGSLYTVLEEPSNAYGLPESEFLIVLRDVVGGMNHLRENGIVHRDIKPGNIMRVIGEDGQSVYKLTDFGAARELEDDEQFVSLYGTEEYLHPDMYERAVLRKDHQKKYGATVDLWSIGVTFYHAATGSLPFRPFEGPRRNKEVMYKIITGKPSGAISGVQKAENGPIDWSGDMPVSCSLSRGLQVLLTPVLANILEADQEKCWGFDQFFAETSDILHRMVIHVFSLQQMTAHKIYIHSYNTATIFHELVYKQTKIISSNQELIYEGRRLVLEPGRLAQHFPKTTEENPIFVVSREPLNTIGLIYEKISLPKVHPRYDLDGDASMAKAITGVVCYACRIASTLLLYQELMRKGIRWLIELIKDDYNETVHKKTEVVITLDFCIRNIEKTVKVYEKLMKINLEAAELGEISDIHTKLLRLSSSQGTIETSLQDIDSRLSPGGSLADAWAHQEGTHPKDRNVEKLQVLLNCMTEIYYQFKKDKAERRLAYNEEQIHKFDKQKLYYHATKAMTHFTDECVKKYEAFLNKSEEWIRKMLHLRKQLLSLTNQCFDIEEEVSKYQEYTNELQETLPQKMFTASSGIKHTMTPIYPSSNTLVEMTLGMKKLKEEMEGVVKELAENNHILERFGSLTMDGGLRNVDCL

[4] = molecular target: Serine/threonine-protein kinase NLK (Homo sapiens) (UniProt Q9UBE8); assay: Inhibition of recombinant human NLK (121 to end residues) assessed as residual activity at 10 uM using myelin basic protein as substrate measured after 40 mins in presence of [gamma33P]ATP by scintillation counting method
Sequence of Serine/threonine-protein kinase NLK (Homo sapiens) (Q9UBE8 whole entry): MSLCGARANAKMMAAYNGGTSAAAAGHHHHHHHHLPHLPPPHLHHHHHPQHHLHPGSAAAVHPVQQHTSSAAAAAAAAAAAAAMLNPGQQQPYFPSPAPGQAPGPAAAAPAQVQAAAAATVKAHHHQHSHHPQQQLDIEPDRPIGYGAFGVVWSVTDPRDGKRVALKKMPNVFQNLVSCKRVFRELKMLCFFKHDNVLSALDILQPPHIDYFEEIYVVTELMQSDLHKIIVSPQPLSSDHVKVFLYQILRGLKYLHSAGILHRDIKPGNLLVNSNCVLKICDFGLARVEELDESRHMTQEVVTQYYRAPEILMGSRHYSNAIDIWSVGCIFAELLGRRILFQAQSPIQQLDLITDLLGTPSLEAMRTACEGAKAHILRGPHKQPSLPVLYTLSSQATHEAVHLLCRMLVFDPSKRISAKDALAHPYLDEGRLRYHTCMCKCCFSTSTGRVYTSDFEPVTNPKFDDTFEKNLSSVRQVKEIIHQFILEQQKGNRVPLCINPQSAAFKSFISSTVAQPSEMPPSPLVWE

[5] = molecular target: Serine/threonine-protein kinase mTOR (Homo sapiens) (UniProt P42345); assay: Inhibition of recombinant full-length human mTOR assessed as residual activity at 10 uM measured after 40 mins in presence of [gamma33P]ATP by scintillation counting method
[6] = system: Mast/stem cell growth factor receptor Kit (Homo sapiens), P10721 [D816V]; assay: Inhibition of recombinant human c-Kit D816V mutant (544 to end residues) assessed as residual activity at 10 uM using poly(Glu, Tyr) 4:1 as substrate measured after 40 mins in presence of [gamma33P]ATP by scintillation counting method
[7] = molecular target: Receptor-interacting serine/threonine-protein kinase 1 (Homo sapiens) (UniProt Q13546); assay: Inhibition of human RIPK1 (8 to 322 residues) using myelin basic protein as substrate measured after 120 mins in presence of [gamma33P]ATP by scintillation counting method; parameters: scale not given: the % may be the effect or the level left
Homo sapiens [8] = species: Homo sapiens; assay: Inhibition of recombinant full-length human PKBalpha S478G mutant assessed as residual activity at 10 uM using GRPRTSSFAEGKK as substrate measured after 40 mins in presence of [gamma33P]ATP by scintillation counting method
[9] = molecular target: Protein-tyrosine kinase 6 (Homo sapiens) (UniProt Q13882); assay: Inhibition of full-length recombinant human BRK assessed as residual activity at 10 uM using poly(Glu, Tyr) 4:1 as substrate measured after 40 mins in presence of [gamma33P]ATP by scintillation counting method
[10] = molecular target: Calcium/calmodulin-dependent protein kinase type 1D (Homo sapiens) (UniProt Q8IU85); assay: Inhibition of recombinant full-length human CaMK1delta assessed as residual activity at 10 uM using calmodulin as substrate measured after 40 mins in presence of [gamma33P]ATP by scintillation counting method
Sequence of Calcium/calmodulin-dependent protein kinase type 1D (Homo sapiens) (Q8IU85 whole entry, looked up): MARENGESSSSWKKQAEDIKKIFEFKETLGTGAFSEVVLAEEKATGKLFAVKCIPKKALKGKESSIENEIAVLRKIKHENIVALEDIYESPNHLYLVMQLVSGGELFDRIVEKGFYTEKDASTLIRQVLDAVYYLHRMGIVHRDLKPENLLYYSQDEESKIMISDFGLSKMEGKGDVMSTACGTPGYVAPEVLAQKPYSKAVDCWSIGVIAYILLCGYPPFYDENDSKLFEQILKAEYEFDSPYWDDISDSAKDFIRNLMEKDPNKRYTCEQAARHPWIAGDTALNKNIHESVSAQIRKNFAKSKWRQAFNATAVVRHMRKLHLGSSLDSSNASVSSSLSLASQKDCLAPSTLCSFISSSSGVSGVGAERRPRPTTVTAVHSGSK

[11] = molecular target: cAMP-dependent protein kinase catalytic subunit alpha (Homo sapiens) (UniProt P17612); assay: Inhibition of recombinant full-length human PKA assessed as residual activity at 10 uM using Kemptide as substrate measured after 40 mins in presence of [gamma33P]ATP by scintillation counting method
[12] = molecular target: Serine/threonine-protein kinase NIM1 (Homo sapiens) (UniProt Q8IY84); assay: Inhibition of recombinant full-length human NIM1 assessed as residual activity at 10 uM using KKKVSRSGLYRSPSMPENLNRPR as substrate measured after 40 mins in presence of [gamma33P]ATP by scintillation counting method
[13] = molecular target: Serine/threonine-protein kinase Nek2 (Homo sapiens) (UniProt P51955); assay: Inhibition of recombinant full-length human NEK2 assessed as residual activity at 10 uM using myelin basic protein as substrate measured after 40 mins in presence of [gamma33P]ATP by scintillation counting method
DLD-1 = assay: Antiproliferative activity against human DLD1 cells assessed as reduction in cell viability after 72 hrs by MTT assay; format: functional, cell-based; settings: DLD-1, 72 h
[14] = system: Tyrosine-protein kinase ABL1 (Homo sapiens), P00519 [T315I]; assay: Inhibition of recombinant human ABL T315I mutant (27 to end residues) assessed as residual activity at 10 uM using EAIYAAPFAKKK as substrate measured after 40 mins in presence of [gamma33P]ATP by scintillation counting method
[15] = molecular target: Ephrin type-A receptor 1 (Homo sapiens) (UniProt P21709); assay: Inhibition of recombinant human EphA1 (568 to end residues) assessed as residual activity at 10 uM using KKKSPGEYVNIEF as substrate measured after 40 mins in presence of [gamma33P]ATP by scintillation counting method
Sequence of Ephrin type-A receptor 1 (Homo sapiens) (P21709 whole entry): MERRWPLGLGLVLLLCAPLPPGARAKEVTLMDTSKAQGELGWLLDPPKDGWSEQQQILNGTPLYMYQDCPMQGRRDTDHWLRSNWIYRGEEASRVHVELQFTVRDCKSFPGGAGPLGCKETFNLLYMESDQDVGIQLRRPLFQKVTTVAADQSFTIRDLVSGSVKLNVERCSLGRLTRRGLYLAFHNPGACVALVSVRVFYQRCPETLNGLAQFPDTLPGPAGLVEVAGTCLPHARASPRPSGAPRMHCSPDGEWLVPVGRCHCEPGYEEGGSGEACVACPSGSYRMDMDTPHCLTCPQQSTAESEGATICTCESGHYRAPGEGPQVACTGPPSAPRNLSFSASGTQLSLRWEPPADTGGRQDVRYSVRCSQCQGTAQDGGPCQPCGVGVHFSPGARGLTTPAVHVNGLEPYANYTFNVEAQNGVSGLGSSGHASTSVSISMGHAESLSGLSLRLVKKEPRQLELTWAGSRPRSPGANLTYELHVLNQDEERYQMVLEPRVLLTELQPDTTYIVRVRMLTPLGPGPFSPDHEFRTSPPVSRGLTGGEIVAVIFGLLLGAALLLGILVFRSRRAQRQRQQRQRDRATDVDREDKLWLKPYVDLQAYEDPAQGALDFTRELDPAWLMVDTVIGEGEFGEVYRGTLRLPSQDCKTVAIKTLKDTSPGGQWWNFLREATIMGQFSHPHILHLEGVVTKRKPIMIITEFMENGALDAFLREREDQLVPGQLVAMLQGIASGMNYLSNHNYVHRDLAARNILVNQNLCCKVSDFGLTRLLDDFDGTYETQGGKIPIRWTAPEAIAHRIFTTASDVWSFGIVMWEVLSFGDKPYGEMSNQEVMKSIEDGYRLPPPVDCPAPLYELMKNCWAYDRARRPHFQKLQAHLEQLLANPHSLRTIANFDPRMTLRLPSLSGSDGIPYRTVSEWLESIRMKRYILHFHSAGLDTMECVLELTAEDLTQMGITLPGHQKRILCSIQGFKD

[16] = system: Mast/stem cell growth factor receptor Kit (Homo sapiens), P10721 [V560G]; assay: Inhibition of recombinant human c-Kit V560G mutant (544 to end residues) assessed as residual activity at 10 uM using GGMEDIYFEFMGGKKK as substrate measured after 40 mins in presence of [gamma33P]ATP by scintillation counting method
Sequence of Mast/stem cell growth factor receptor Kit (Homo sapiens), P10721 [V560G] (P10721 whole entry V560G): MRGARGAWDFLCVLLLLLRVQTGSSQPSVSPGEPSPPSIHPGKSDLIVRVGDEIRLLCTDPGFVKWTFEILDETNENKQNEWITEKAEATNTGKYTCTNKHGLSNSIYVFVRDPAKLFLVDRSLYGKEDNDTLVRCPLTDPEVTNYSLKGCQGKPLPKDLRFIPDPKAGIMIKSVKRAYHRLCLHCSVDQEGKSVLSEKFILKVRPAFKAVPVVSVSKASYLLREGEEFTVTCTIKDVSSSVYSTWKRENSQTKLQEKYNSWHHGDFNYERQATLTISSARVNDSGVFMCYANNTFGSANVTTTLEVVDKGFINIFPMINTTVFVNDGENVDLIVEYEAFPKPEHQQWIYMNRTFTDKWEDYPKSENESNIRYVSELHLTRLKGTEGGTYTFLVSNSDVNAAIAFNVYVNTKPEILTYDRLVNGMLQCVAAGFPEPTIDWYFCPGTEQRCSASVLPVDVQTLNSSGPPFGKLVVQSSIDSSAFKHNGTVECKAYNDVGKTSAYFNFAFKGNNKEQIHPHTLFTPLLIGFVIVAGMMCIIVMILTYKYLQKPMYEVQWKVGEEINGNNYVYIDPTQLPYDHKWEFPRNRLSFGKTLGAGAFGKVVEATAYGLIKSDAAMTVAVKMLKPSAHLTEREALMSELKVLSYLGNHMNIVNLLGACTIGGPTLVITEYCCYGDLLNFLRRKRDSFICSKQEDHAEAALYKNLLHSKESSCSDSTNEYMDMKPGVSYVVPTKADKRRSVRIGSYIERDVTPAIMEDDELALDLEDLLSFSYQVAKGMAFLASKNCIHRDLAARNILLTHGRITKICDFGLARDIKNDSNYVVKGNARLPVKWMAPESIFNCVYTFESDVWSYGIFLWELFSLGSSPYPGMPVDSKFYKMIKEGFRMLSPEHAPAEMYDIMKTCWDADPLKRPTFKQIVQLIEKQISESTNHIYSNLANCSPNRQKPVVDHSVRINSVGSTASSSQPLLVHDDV

[17] = molecular target: Tyrosine-protein kinase Fgr (Homo sapiens) (UniProt P09769); assay: Inhibition of recombinant human FGR (2 to end residues) assessed as residual activity at 10 uM using poly(Glu, Tyr) 4:1 as substrate measured after 40 mins in presence of [gamma33P]ATP by scintillation counting method
[18] = molecular target: Tau-tubulin kinase 1 (Homo sapiens) (UniProt Q5TCY1); assay: Inhibition of human TTBK1 (1 to 479 residues) using Casein as substrate measured after 40 mins in presence of [gamma33P]ATP by scintillation counting method; parameters: scale not given: the % may be the effect or the level left
Mus musculus [19] = species: Mus musculus; assay: Inhibition of recombinant full-length mouse PI3K p110beta/p85alpha R123L mutant assessed as residual activity at 10 uM using phosphatidylinositol-4, 5-bisphosphate as substrate measured after 40 mins by HTRF assay
[20] = system: Serine/threonine-protein kinase Sgk2 (Homo sapiens), Q9HBY8 [S416D]; assay: Inhibition of recombinant human SGK2 S416D mutant (54 to end residues) assessed as residual activity at 10 uM using GRPRTSSFAEGKK as substrate measured after 40 mins in presence of [gamma33P]ATP by scintillation counting method
Sequence of Serine/threonine-protein kinase Sgk2 (Homo sapiens), Q9HBY8 [S416D] (Q9HBY8 1-367 with tags or gaps S416D): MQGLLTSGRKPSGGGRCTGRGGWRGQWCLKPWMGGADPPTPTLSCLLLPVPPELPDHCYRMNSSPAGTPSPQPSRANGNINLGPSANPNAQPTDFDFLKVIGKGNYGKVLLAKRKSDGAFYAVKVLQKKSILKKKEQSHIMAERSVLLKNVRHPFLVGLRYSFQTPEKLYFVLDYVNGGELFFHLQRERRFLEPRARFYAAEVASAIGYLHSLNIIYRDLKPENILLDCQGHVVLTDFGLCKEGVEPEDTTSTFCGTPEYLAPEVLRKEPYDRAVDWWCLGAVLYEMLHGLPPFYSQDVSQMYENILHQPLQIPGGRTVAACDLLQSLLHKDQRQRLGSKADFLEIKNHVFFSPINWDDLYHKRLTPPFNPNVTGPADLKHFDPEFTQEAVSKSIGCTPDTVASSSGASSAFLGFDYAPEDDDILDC

Homo sapiens [21] = species: Homo sapiens; assay: Inhibition of recombinant human EphB2 A848S/ K918E mutant (560 to end residues) assessed as residual activity at 10 uM using KTFCGTPEYLAPEVRREPRILSEEEQEMFRDFDYIADWC as substrate measured after 40 mins in presence of [gamma33P]ATP by scintillation counting method
Mus musculus [22] = species: Mus musculus; assay: Inhibition of recombinant full-length mouse PI3K p110alpha/p65alpha (1 to 571 residues) assessed as residual activity at 10 uM using phosphatidylinositol-4, 5-bisphosphate as substrate measured after 40 mins by HTRF assay
[23] = molecular target: Serine/threonine-protein kinase 24 (Homo sapiens) (UniProt Q9Y6E0); assay: Inhibition of recombinant human MST3 (1 to 304 residues) assessed as residual activity at 10 uM using ERMRPRKRQGSVRRRV as substrate measured after 40 mins in presence of [gamma33P]ATP by scintillation counting method
Sequence of Serine/threonine-protein kinase 24 (Homo sapiens) (Q9Y6E0 whole entry, looked up, the tested form may be a part): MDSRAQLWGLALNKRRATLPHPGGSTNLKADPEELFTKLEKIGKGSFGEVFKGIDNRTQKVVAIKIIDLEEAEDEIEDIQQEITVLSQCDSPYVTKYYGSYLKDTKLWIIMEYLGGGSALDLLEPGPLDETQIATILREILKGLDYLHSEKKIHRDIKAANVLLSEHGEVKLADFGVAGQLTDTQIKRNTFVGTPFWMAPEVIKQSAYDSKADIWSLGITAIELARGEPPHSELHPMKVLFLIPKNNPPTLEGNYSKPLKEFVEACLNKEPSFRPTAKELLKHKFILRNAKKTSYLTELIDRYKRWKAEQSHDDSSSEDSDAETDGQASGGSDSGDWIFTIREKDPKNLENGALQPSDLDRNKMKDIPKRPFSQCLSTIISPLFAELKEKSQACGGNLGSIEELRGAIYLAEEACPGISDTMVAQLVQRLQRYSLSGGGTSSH

Compound: Cc1cc(C)c(CNc2nc(Cl)nc3c2ncn3C2CCCC2)c(=O)[nH]1
- Activity [1]: 136%
- Activity [2]: 102%
- Activity [3]: 99.5%
- Activity [4]: 93.5%
- Activity [5]: 78.5%
- Activity [6]: 93%
- Activity [7]: 92%
- Activity (Homo sapiens [8]): 105%
- Activity [9]: 100%
- Activity [10]: 107%
- Activity [11]: 91%
- Activity [12]: 106%
- Activity [13]: 101%
- IC50 (DLD-1): 0.136 µM
- Activity [14]: 108%
- Activity [15]: 102%
- Activity [16]: 95.5%
- Activity [17]: 94.5%
- Activity [18]: 102%
- Activity (Mus musculus [19]): 104%
- Activity [20]: 112%
- Activity (Homo sapiens [21]): 93.5%
- Activity (Mus musculus [22]): 104%
- Activity [23]: 110%
